Reference: US5843916A, “Cyclic amp analogues, individually and in pairs, to inhibit neoplastic cell growth” (priority 1994, dated 1998)
pIC50: −log10 of the molar value. Like-named read-outs stand apart in the source and are kept apart here. Each block holds one molecule with its values, some of them ahead of it.

Key:
[1] = system: breast (MCF-7) and colon (LS-174T) cancer cell lines; assay: Growth inhibition of breast and colon cancer cells (Table 1); format: cell-based, human; settings: for inhibition at 50 µM: Homo sapiens
Protocol: The compounds of the present invention were added using 100X concentrated stock solutions. At desired times, cell counts in duplicate were performed on a Coulter counter after harvesting the cells with gentle trypsinization. […] Cell counts were performed on each of three or more separate experiments, and the average values are expressed as percent growth inhibition as compared with untreated control cells. | ^a The values of percentage growth inhibition were determined from th | doseresponse curve experiments. Each value represents an average value an | range (in parentheses) obtained from three or more separate experiments. | The cell counts in duplicate were performed at day 3 and day 4 after two | treatments (day 0 and day 2) with analogs (seeding on day -1).

[2] = target: T1, RI, regulatory subunit of cAMP-dependent protein kinase type I (Oryctolagus cuniculus, UniProt G1TDN4); settings: literature, cited from earlier work; for relative affinity Ki (cAMP)/Ki (analogue), RI Site A: Site A (Site 2); for relative affinity Ki (cAMP)/Ki (analogue), RI Site B: Site B (Site 1)
T1 construct: from tissue
T1 sequence (G1TDN4 1-381): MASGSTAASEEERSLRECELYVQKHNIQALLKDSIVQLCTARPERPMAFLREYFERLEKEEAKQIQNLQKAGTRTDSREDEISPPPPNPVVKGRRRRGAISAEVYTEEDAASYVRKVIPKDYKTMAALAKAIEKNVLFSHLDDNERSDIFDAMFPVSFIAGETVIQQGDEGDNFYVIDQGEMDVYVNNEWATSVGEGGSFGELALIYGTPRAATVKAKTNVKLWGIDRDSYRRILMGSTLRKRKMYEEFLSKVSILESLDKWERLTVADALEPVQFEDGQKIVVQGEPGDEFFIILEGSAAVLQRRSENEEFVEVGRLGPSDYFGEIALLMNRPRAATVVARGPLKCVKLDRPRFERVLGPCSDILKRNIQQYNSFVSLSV

[3] = system: HL-60 human leukemia cells; assay: Growth inhibition of HL-60 leukemia cells (Example 3, Table 16); format: cell-based
Protocol: HL-60 leukemic cells were obtained from the American Type Culture Collection (Rockville, Md.) and were grown in suspension culture in RPMI 1640 supplemented with 10% heat-inactivated fetal bovine serum, streptomycin (500 μg/ml), penicillin (50 units/ml), and glutamine (1 mM) (Gibco, Grand Island, N.Y.).
Cell counts were performed at desired times on a Coulter Counter.
The IC50 values were determined from the dose-
represent an average value obtained for each analogue
from two or more separate experiments carried out from 3
days or 6 days. Initial cell number, 1 × 10^5 /dish.
Typical numbers of untreated control cells at day 3 and
viability in treated and control cells.

myc-K562 = assay: Growth inhibition of leukemic cells (Table 12); format: cell-based; settings: Homo sapiens
[4] = target: T2, RII, regulatory subunit of cAMP-dependent protein kinase type II (Bos taurus, UniProt P00515); settings: literature, cited from earlier work; for relative affinity Ki (cAMP)/Ki (analogue), RII Site A: Site A (Site 2); for relative affinity Ki (cAMP)/Ki (analogue), RII Site B: Site B (Site 1)
T2 construct: from tissue
T2 sequence (P00515 whole entry): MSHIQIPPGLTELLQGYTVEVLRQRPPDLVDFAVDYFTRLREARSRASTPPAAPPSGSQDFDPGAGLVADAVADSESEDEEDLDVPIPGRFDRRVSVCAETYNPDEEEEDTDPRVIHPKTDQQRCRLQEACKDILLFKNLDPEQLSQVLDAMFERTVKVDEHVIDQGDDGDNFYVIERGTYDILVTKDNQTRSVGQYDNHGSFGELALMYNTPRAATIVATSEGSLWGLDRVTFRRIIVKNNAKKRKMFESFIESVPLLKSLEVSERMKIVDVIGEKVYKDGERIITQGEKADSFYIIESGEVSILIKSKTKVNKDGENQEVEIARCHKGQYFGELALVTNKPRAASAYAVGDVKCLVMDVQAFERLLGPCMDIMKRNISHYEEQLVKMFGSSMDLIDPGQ

HL-60 = assay: Growth inhibition of leukemic cells (Table 12); format: cell-based; settings: Homo sapiens
Molt-4 = assay: Growth inhibition of leukemic cells (Table 12); format: cell-based, human; settings: Homo sapiens, MOLT-4; read-out: Inhibition of Growth IC50, Molt-4
[5] = system: four leukemic cell lines (HL-60, K-562, myc-K562, Molt-4); assay: Growth inhibition of leukemic cell lines; format: cell-based, human
K-562 = assay: Growth inhibition of leukemic cells (Table 12); format: cell-based; settings: Homo sapiens, K562
[6] = system: LS-174T human colon carcinoma cells; assay: Growth inhibition of LS-174T cells (Example 4, Table 18); format: cell-based; settings: for inhibition at 10 µM / inhibition at 50 µM: Homo sapiens, LS174T; for growth inhibitory potency: LS-174T
Protocol: LS-174T human colon carcinoma cells were obtained from the National Cancer Institute, Division of Cancer Treatment, Bethesda, Md., and were grown in Eagle's minimum essential medium supplemented with 10% heat-inactivated fetal bovine serum, Eagle's minimum essential medium nonessential amino acids, 20 mM 4-(2-hydroxyethyl)-1-piperazineethanesulfonic acid, 2mM glutamine, and penicillin-streptomycin (Gibco). The medium was changed every 48 hours.
LS-174T cells were seeded at a density of 2×10^5 / 60 mm dish. […] At desired times, cell counts were performed in duplicate on a Coulter Counter after harvesting cells with gentle trypsinization.
The percentage growth inhibition values shown at 10
and 50 μM analogue concentrations were determined from
the dose-response curve experiments like those shown in
FIG. 1 and represent an average value obtained for each
analogue from two or more separate experiments. Sp-6-SET-

[7] = system: LS-174T human colon carcinoma cells; assay: Additive growth inhibition with 8-Cl-cAMP (Table 19); format: cell-based
Protocol: The medium was changed every 48 hours.
At desired times, cell counts were performed in duplicate on a Coulter Counter after harvesting cells with gentle trypsinization.
The analogues were added at 24

[8] = target: T2, RII, regulatory subunit of cAMP-dependent protein kinase type II; assay: Binding affinity for RII (Table 14); settings: vs cyclophosphate
Protocol: (§1) RI and RII are the regulatory subunits of cAMP-dependent protein
(§2) kinase type I and type II, respectively. Site A (Site 2) and Site B
(§3) (RI and RII): the affinities of analogues for Site A and Site B were
(§4) determined by the measurement of kinetic constants (inhibition constant,
(§5) Ki), and the values are expressed as the relative affinity Ki
(§6) (analogue), i.e., the ratio between the apparent inhibition constant for
(§7) cAMP and the analogue, as described in Ogreid et al., Eur. J. Biochem.

[9] = target: T1, RI, regulatory subunit of cAMP-dependent protein kinase type I; assay: Binding affinity for RI (Table 14); settings: vs cyclophosphate
Protocol: as §1, §2, §3, §4, §5, §6, §7

[10] = system: breast and colon cancer lines (MCF-7, T-47D, ZR-75-1, MCF-7ras, MDA-MB-231, BT-20, HBL-100, LS-174T, WiDr, HT-29); assay: Growth inhibition of breast and colon cancer lines (FIG. 1); format: cell-based, human; settings: 0.1 mM, alone
[11] = 72 h, 50 μM, day 3, average (range), read-out: % Growth Inhibition, Day 3
[12] = 96 h, 50 μM, day 4, average (range), read-out: % Growth Inhibition, Day 4
[13] = 50 micromolar, read-out: growth inhibition
[14] = Homo sapiens, HL-60, read-out: growth inhibition

Compound: O=P1(O)OC[C@H]2O[C@@H](n3c(Sc4ccc(Cl)cc4)nc4c(N5CCCCC5)ncnc43)[C@H](O)[C@@H]2O1 [6-piperidino-8-p-chlorophenylthio-cAMP]
inhibition at 50 µM [1, 11]: 33%
inhibition at 50 µM [1, 12]: 25%

pIC50 ([3]; Homo sapiens, HL-60, 72 h; read-out: Growth inhibition (IC50), Day 3): 4.00
pIC50 ([3]; Homo sapiens, HL-60, 144 h; read-out: Growth inhibition (IC50), Day 6): 4.74
pIC50 (myc-K562): 4.00
pIC50 (HL-60): 4.30
pIC50 (Molt-4): 4.00
pIC50 (K-562): 4.00
Compound: Nc1ncnc2c1nc(Br)n2[C@@H]1O[C@@H]2COP(=O)(O)O[C@H]2[C@H]1O [8-Br-cAMP, 8-bromo-adenosine 3': 5'-monophosphate]
relative affinity Ki (cAMP)/Ki (analogue), RI Site A [2]: 1.30
relative affinity Ki (cAMP)/Ki (analogue), RI Site B [2]: 1.0
inhibition at 20 µM ([3]; Homo sapiens, HL-60; 20 μM; read-out: growth inhibition): < 5%
relative affinity Ki (cAMP)/Ki (analogue), RII Site A [4]: 0.11
relative affinity Ki (cAMP)/Ki (analogue), RII Site B [4]: 6.8
times less potent than 8-Cl-cAMP ([5]; leukemic cell lines): 5-20 times
inhibition at 50 µM [1, 11]: 41%
inhibition at 50 µM [1, 12]: 40%
inhibition at 50 µM [1, 13]: 40 to 75%

Compound: CN(C)c1nc2c(N)ncnc2n1[C@@H]1O[C@@H]2COP(=O)(O)O[C@H]2[C@H]1O [8-N,N-dimethylamino-cAMP]
inhibition at 50 µM [1, 11]: 0%
inhibition at 50 µM [1, 12]: 0%
inhibition at 50 µM [1, 13]: ≤ 20%

Compound: Nc1ncnc2c1nc(I)n2[C@@H]1O[C@@H]2COP(=O)(O)O[C@H]2[C@H]1O [8-iodo-cAMP]
inhibition at 50 µM [1, 11]: 26%
inhibition at 50 µM [1, 12]: 25%

Compound: Nc1ncnc2c1nc(Sc1ccc(Cl)cc1)n2[C@@H]1O[C@@H]2COP(=O)(O)O[C@H]2[C@H]1O [8-p-chlorophenylthio-cAMP]
inhibition at 50 µM [1, 11]: 23%
inhibition at 50 µM [1, 12]: 24%

Compound: Nc1ncnc2c1nc(NCCO)n2[C@@H]1O[C@@H]2COP(=O)(O)O[C@H]2[C@H]1O [8-β-hydroxyethylamino-cAMP]
inhibition at 50 µM [1, 11]: 15%
inhibition at 50 µM [1, 12]: 20%
inhibition at 50 µM [1, 13]: ≤ 20%

Compound: CCOC(=O)Nc1ncnc2c1ncn2[C@@H]1O[C@@H]2COP(=O)(O)O[C@H]2[C@H]1O [N^6 -ethoxycarbonyl-cAMP]
inhibition at 50 µM [1, 11]: 32%
inhibition at 50 µM [1, 12]: 40%
inhibition at 50 µM [1, 13]: 30 to 70%

Compound: O=C(Nc1ccccc1)Nc1ncnc2c1ncn2[C@@H]1O[C@@H]2COP(=O)(O)O[C@H]2[C@H]1O [N^6 -phenylcarbamoyl-cAMP]
inhibition at 50 µM [1, 11]: 10%
inhibition at 50 µM [1, 12]: 10%

Compound: CCN(CC)c1ncnc2c1nc(Sc1ccc(Cl)cc1)n2[C@@H]1O[C@@H]2COP(=O)(O)O[C@H]2[C@H]1O [N^6,N ^6-diethyl-8-p-chlorophenylthio-cAMP]
inhibition at 50 µM [1, 11]: 43%
inhibition at 50 µM [1, 12]: 45%

Compound: O=P1(O)OC[C@H]2O[C@@H](n3c(SCc4ccccc4)nc4c(NCc5ccccc5)ncnc43)[C@H](O)[C@@H]2O1 [N^6-benzyl-8-benzylthio-cAMP]
inhibition at 50 µM [1, 11]: 25%
inhibition at 50 µM [1, 12]: 23%

Compound: CCCCNc1ncnc2c1nc(Sc1ccc(Cl)cc1)n2[C@@H]1O[C@@H]2COP(=O)(O)O[C@H]2[C@H]1O [N^6-n-butyl-8-p-chlorophenylthio-cAMP]
inhibition at 50 µM [1, 11]: 15%
inhibition at 50 µM [1, 12]: 22%

Compound: O=P1(O)OC[C@H]2O[C@@H](n3c(Sc4ccc(Cl)cc4)nc4c(Nc5ccccc5)ncnc43)[C@H](O)[C@@H]2O1 [N^6-phenyl-8-p-chlorophenylthio-cAMP]
growth inhibition ([1]; 50 micromolar): most potent growth inhibition among the C-6,-8 disubstituted analogues
inhibition at 50 µM [1, 11]: 60%
inhibition at 50 µM [1, 12]: 47%

Compound: Nc1ncnc2c1ncn2[C@@H]1O[C@@H]2CO[P@@](O)(=S)O[C@H]2[C@H]1O [Rp-cAMPS]
inhibition at 10 µM [6]: 15%
inhibition at 50 µM [6]: 35%
growth inhibitory potency [6]: moderate potency
inhibition at 20 µM [3, 14]: < 5%
inhibition at 50 µM ([7]; Homo sapiens, LS174T, 96 h, 50 μM, 4 days): 35%
effect on growth-inhibitory effect of 8-Cl-cAMP ([7]; with 8-Cl-cAMP): additive effect

Compound: Nc1nc(Cl)nc2c1ncn2[C@@H]1O[C@@H]2CO[P@](O)(=S)O[C@H]2[C@H]1O [Sp-2-Cl-cAMPS, Sp-2-Chloroadenosine-3':5'-monophosphorothioate]
inhibition at 10 µM [6]: 10%
inhibition at 50 µM [6]: 25%
growth inhibitory potency [6]: least potency

Compound: CCSc1ncnc2c1ncn2[C@@H]1O[C@@H]2CO[P@](O)(=S)O[C@H]2[C@H]1O [Sp-6-SET-cPMPS, Sp-6-ethylthiopurine-3':5'-monophosphorothioate]
inhibition at 10 µM [6]: 25%
inhibition at 50 µM [6]: 50%
growth inhibitory potency [6]: moderate potency

Compound: Nc1ncnc2c1nc(Br)n2[C@@H]1O[C@@H]2CO[P@](O)(=S)O[C@H]2[C@H]1O [Sp-8-Br-cAMPS]
inhibition at 10 µM [6]: 40%
inhibition at 50 µM [6]: 60%
growth inhibitory potency [6]: greatest inhibition of cell growth
relative affinity Ki (cAMP)/Ki (analogue), RI Site A [2]: 0.19
relative affinity Ki (cAMP)/Ki (analogue), RI Site B [2]: 0.054
pIC50 ([3]; Homo sapiens, HL-60, 72 h, read-out: Growth inhibition (IC50), Day 3): 4.55
pIC50 ([3]; Homo sapiens, HL-60, 144 h, read-out: Growth inhibition (IC50), Day 6): 5.52
inhibition at 20 µM [3, 14]: 47%
fold more potent than 8-Br-cAMP ([3]; IC50, day 6): 6 fold
relative affinity Ki (cAMP)/Ki (analogue), RII Site A [4]: 0.003
relative affinity Ki (cAMP)/Ki (analogue), RII Site B [4]: 2.2
decrease in affinity for Site A of RII vs corresponding cyclophosphate [8]: 37 fold
decrease in affinity for Site B of RII vs corresponding cyclophosphate [8]: 3.1 fold
decrease in affinity for Site A of RI vs corresponding cyclophosphate [9]: 7 fold
decrease in affinity for Site B of RI vs corresponding cyclophosphate [9]: 19 fold

Compound: Nc1ncnc2c1ncn2[C@@H]1O[C@@H]2CO[P@](O)(=S)O[C@H]2[C@H]1O [Sp-cAMPS]
inhibition at 10 µM [6]: 7%
inhibition at 50 µM [6]: 15%
growth inhibitory potency [6]: least potency
inhibition at 20 µM [3, 14]: < 5%

Compound: Cn1c(=O)c2[nH]cnc2n(C)c1=O [theophylline, reference compound]
growth inhibitory effect [10]: little or no growth inhibitory effect
growth inhibitory effect ([5]; 0.1 mM, alone): little or no growth inhibitory effect
